From patent US4782081A, “Compounds and methods useful for the synthesis of thromboxane A2” (priority 1986, dated 1988)
Values joined by “and” are separate entries in the source; they are usually repeats but may differ in a detail not shown here. Identical values can stand only once. “Also recorded” adds a separate entry of the source. Counter-ions that a name gives are not always drawn.

Tests used:
[1] = biological activity (biological properties of TXA2) in a variety of assays
Procedure: (§1) TXA2 S was also prepared by saponifiction of H2 (X=H) with Me3 SiOK (10) in tetrahydrofuran and isolated as an amorphous solid by solvent evaporation.

[2] = tested on: platelets; assay: inhibition of TXA2 S induced platelet aggregation; format: cell-based, human
[3] = tested on: rabbit mesenteric arteries; conditions: ref (19); cited from earlier work
[4] = tested on: rabbit celiac arteries; conditions: ref (19); cited from earlier work
[5] = in vitro; format: in vitro ADME; conditions: human, plasma
Source text: (§2) TXA2 S at concentrations of 16-100 nanograms/ml caused a concentration-dependent aggregation of human platelet rich plasma (PRP). Irreversible aggregation occurred with 50-100 nanograms TXA2 S/ml for all cases examined. […] These comparative potencies concur with published data. […] The aggregatory effects of TXA2 S were confined to platelets.

[6] = tested on: rabbit aorta; assay: contraction of Krebs superfused rabbit aorta; format: cell-based; conditions: threshold dose 2-3 ng
Procedure: (§3) On most tissues 2-3 ng of TXA2 S was the threshold dose for contraction, generating more than 2 g of tension with rabbit aorta and 4 g of tension with bovine coronary arteries.

[7] = tested on: human platelet rich plasma (PRP); assay: aggregation of human platelet rich plasma (PRP); format: cell-based
Source text: as §2

[8] = half-life in Krebs solution at 37° C. (bioassay on vascular tissue); format: physicochemical; conditions: leading to TXB2
Procedure: Radioimmunoassay determinations of hydrolyzed TXA2 yielded values of 84±21, 60±16, 39±11, and 25±8 picograms TXB2 (mean±S.D at 95% confidence, n=3) which correspond with predicted values of 125, 62, 31, and 15 picograms, respectively. The half-life of TXA2 S at 37° C. in Krebs solution measured by bioassay on vascular tissue was 30 seconds which compares very closely with previously reported half-lives for biologically generated material. (1, 12)

[9] = tested on: vascular tissue (rabbit aorta, pulmonary, mesenteric, celiac arteries and bovine coronary arteries); assay: contraction of Krebs superfused vascular tissue; format: cell-based; conditions: for contraction of vascular tissue / constriction of vascular tissue versus natural TXA2: rabbit aorta, pulmonary; for contraction of vascular tissue: mesenteric, celiac arteries and bovine coronary arteries; for constriction of vascular tissue versus natural TXA2: mesenteric and celiac arteries
Procedure: as §3

[10] = tested on: human neutrophils; assay: aggregation of human neutrophils; format: cell-based
[11] = chemical stability and storage stability; format: physicochemical
Procedure: The salts of TXA2 were stable for more than one week when stored at -20 C. either as isolated solids or in basic methanol or tetrahydrofuran solution.
To a vile containing 1 mg (0.003 mmol) H1 in 0.050 ml (d4 -)methanol was immediately added 0.0025 ml of a 0.12M solution of NaOH(D) in (D)H2 O under nitrogen. […] Such solutions were diluted and used for biological testing and could be stored for at least a week at -20° C. without significant loss in biological activity.
as §1

[12] = tested on: bovine coronary arteries; assay: contraction of Krebs superfused bovine coronary arteries; format: cell-based; conditions: threshold dose 2-3 ng
Procedure: as §3

[13] = tested on: rabbit celiac arteries; assay: response of rabbit celiac arteries; format: cell-based
Procedure: as §3

[14] = tested on: leukotriene B4; assay: stimulation of leukotriene B4 formation; format: cell-based, human; conditions: 2 ug/ml
[15] = tested on: rabbit mesenteric arteries; assay: response of rabbit mesenteric arteries; format: cell-based
Procedure: as §3

[16] = tested on: vascular tissue (rabbit aorta, pulmonary, mesenteric, celiac arteries and bovine coronary arteries); conditions: generated by platelets or a partially purified platelet enzyme; cited from earlier work
[17] = 37° C., pH 7.4; refs (1,3); cited from earlier work
[18] = indirect methods; refs (14), (15); listed as biologically generated material; cited from earlier work
[19] = tested on: thromboxane synthetase or cyclooxygenase

Structure (SMILES): CCCCC[C@H](O)/C=C/[C@H]1O[C@H]2C[C@H](O2)[C@@H]1C/C=C\CCCC(=O)O [A, Thromboxane A2]
- biological assays versus platelet-derived TXA2 [1]: indistinguishable from platelet-derived TXA2

Structure (SMILES): CCCCCC1C=CC2OC3CC(O3)C2CC=CCCCC(=O)O1 (stereo not drawn) [Compound H2, 1,15-Anhydro Thromboxane A2]
- biological activity [1]: did not show the biological properties of TXA2; also recorded: biologically inactive

Structure (SMILES): CCCCCCC=CC1C2CC(N=N2)C1CC=CCCCC(=O)O (stereo not drawn) [Compound U-51605, 9,11-diazo-prosta-5,13-dienoic acid]
- TXA2-induced aggregation ([2]; inhibitor at 1-3 ug/ml): inhibited TXA2 -induced aggregation in a concentration-dependent manner

Structure (SMILES): CCCCCCC=CC1C2CC(NO2)C1CC=CCCCC(=O)O (stereo not drawn) [Compound U-54701, 9,11-iminoepoxy-prosta-5,13-dienoic acid]
- platelet aggregation induced by TXA2 S ([2]; inhibitor at 5-15 ug/ml): no effect

Structure (SMILES): CCCCC[C@H](O)/C=C/[C@@H]1[C@@H](C/C=C\CCCC(=O)O)[C@@H]2C[C@H]1OO2 [PGH2]
- response of rabbit mesenteric arteries to PGH2 [3]: small, short-lived contraction, followed by larger, longer lasting relaxation
- response of rabbit celiac arteries to PGH2 [4]: small, short-lived contraction, followed by larger, longer lasting relaxation

Structure (SMILES): CCCCC[C@H](O)/C=C/[C@H]1O[C@H]2C[C@H](O2)[C@@H]1C/C=C\CCCC(=O)O [TXA2 S, Thromboxane A2]
- biological activity [1]: did exhibit biological properties
- biological activity after hydrolysis ([1]; 0.1M phosphate buffer, pH 7.4): eliminated its biological activity
- half-life [5]: 234 s
- tension generated, rabbit aorta [6]: more than 2 g
- concentration causing concentration-dependent aggregation of human PRP [7]: 16-100 nanograms/ml
- potency relative to PGH2 at inducing aggregation of human PRP [7]: approximately 10 times
- concentration causing irreversible aggregation ([7]; all cases examined): 50-100 nanograms/ml
- half-life ([8]; krebs medium): 30 s
- potency versus biologically produced TXA2 ([9]; TXA2 calculated from PGH2 originally in the incubation, assuming 100% conversion): compared well with the activity of biologically produced TXA2
- contraction of vascular tissue [9]: contracted all vascular tissue tested
- aggregation of human neutrophils ([10]; 2 ug/ml): did not aggregate human neutrophils
- storage without significant loss in activity ([11]; -20° C., basic saponification solutions): up to a week
- stability in basic saponification solutions ([11]; basic saponification solutions): relatively stable
- stability in neutral or acidic solutions ([11]; neutral or acidic solutions): rapid decomposition
- tension generated, bovine coronary arteries [12]: > 4 g
- response of rabbit celiac arteries [13]: only constriction
- stimulation of formation of leukotriene B4 [14]: nor did it stimulate formation of leukotriene B4
- response of rabbit mesenteric arteries [15]: only constriction

Structure (SMILES): CCCCC[C@H](O)/C=C/[C@H]1O[C@H]2C[C@H](O2)[C@@H]1C/C=C\CCCC(=O)O [TXA2, thromboxane A2]
- vascular contracting activity [16]: potent vaxcular contracting activity
- contraction of vascular tissue [9]: contracted all vascular tissue tested
- hydrolysis to TXB2 ([11]; aqueous high salt, neutral pH buffers): rapidly hydrolyzed to TXB2
- stability at high pH ([11]; high pH): appreciably enhanced at high pH
- response of rabbit celiac arteries [13]: only constriction
- T1/2 in aqueous Krebs medium [17]: 32 s
- response of rabbit mesenteric arteries [15]: only constriction
- half-life in plasma, biologically generated material [18]: 3 minutes and 5-6 minutes

Structure (SMILES): CCCCCC(O)C=CC1OC2CC(O2)C1CC=CCCCC(=O)O (stereo not drawn) [free acid]
- stability of free acid in aprotic solvents ([11]; deuterochloroform, elimination to the enol ether): underwent elimination to the corresponding enol ether over the course of several hours

Structure (SMILES): CCCCCC(O)C=CC1OC2CC(O2)C1CC=CCCCC(=O)O (stereo not drawn) [potassium salt of A, Thromboxane A2 Potassium]
- comparative potency in aggregating human platelets versus natural TXA2 [7]: indistinguishable from natural TXA2
- half-life in Krebs medium/solution [8]: 30 s
- constriction of vascular tissue versus natural TXA2 [9]: indistinguishable from natural TXA2
- aggregation of neutrophils [10]: not neutrophils
- resistance to inhibition by selective thromboxane synthetase or cyclooxygenase inhibitors versus natural TXA2 [19]: indistinguishable from natural TXA2

Structure (SMILES): CCCCCC(O)C=CC1OC2CC(O2)C1CC=CCCCC(=O)O (stereo not drawn) [sodium salt of A, Thromboxane A2 Sodium]
- biological activity [1]: marked activity
- comparative potency in aggregating human platelets versus natural TXA2 [7]: indistinguishable from natural TXA2
- half-life in Krebs medium/solution [8]: 30 s
- constriction of vascular tissue versus natural TXA2 [9]: indistinguishable from natural TXA2
- aggregation of neutrophils [10]: not neutrophils
- storage without significant loss in biological activity ([11]; -20° C., methanol/water saponification solution): at least a week
- resistance to inhibition by selective thromboxane synthetase or cyclooxygenase inhibitors versus natural TXA2 [19]: indistinguishable from natural TXA2
